Measured values published in patent publication EP0041644B1 (priority 1980, dated 1981).

Legend:
L1210 Leukemia [1] = experiment: L1210 Leukemia - Test 2; type: in vivo, mice
L1210 Leukemia [2] = experiment: L1210 Leukemia - Test 3 (vehicle comparison); type: in vivo, mice; details: for Effect MST % T/C / MST Days: Day 1 only
B16 Melanoma [3] = experiment: B16 Melanoma - Test 2 (ip tumor brei); type: in vivo, mice; details: QD +9
B16 Melanoma [4] = experiment: B16 Melanoma - Test 3 (sc trocar fragments); type: in vivo, mice
Lewis Lung Carcinoma = Lewis Lung Carcinoma - Test 1 (ip, delayed therapy); type: in vivo, mice
[5] = water

## [NH2][Pt]1([NH2])[O]C(=O)C([O-])C(=O)[O]1.[Na+] [Example 3, 2-Hydroxymalonato diammine platinum (II), sodium salt]
L1210 Leukemia [1]; 4 mg/kg/inj ip, qd 1→9
  Effect MST % T/C: 100 % T/C
  MST Days: 7.0 days
L1210 Leukemia [1]; 8 mg/kg/inj ip, qd 1→9
  Effect MST % T/C: 114 % T/C
  MST Days: 8.0 days
L1210 Leukemia [1]; 16 mg/kg/inj ip, qd 1→9
  Effect MST % T/C: 157 % T/C
  MST Days: 11.0 days
L1210 Leukemia [1]; 20 mg/kg/inj iv, d.1, 5&9
  Effect MST % T/C: 100 % T/C
  MST Days: 7.0 days
L1210 Leukemia [1]; 24 mg/kg/inj ip, qd 1→9
  Effect MST % T/C: 207 % T/C
  MST Days: 14.5 days
L1210 Leukemia [1]; 40 mg/kg/inj ip, d.1
  Effect MST % T/C: 114 % T/C
  MST Days: 8.0 days
L1210 Leukemia [1]; 40 mg/kg/inj iv, d.1
  Effect MST % T/C: 100 % T/C
  MST Days: 7.0 days
L1210 Leukemia [1]; 40 mg/kg/inj iv, d.1, 5&9
  Effect MST % T/C: 107 % T/C
  MST Days: 7.5 days
L1210 Leukemia [1]; 60 mg/kg/inj ip, d.1
  Effect MST % T/C: 121 % T/C
  MST Days: 8.5 days
L1210 Leukemia [1]; 60 mg/kg/inj iv, d.1
  Effect MST % T/C: 100 % T/C
  MST Days: 7.0 days
L1210 Leukemia [1]; 60 mg/kg/inj iv, d.1, 5&9
  Effect MST % T/C: 143 % T/C
  MST Days: 10.0 days
L1210 Leukemia [1]; 80 mg/kg/inj iv, d.1, 5&9
  Effect MST % T/C: 100 % T/C
  MST Days: 7.0 days
L1210 Leukemia [1]; 90 mg/kg/inj ip, d.1
  Effect MST % T/C: 143 % T/C
  MST Days: 10.0 days
L1210 Leukemia [1]; 90 mg/kg/inj iv, d.1
  Effect MST % T/C: 107 % T/C
  MST Days: 7.5 days
L1210 Leukemia [1]; 120 mg/kg/inj ip, d.1
  Effect MST % T/C: 136 % T/C
  MST Days: 9.5 days
L1210 Leukemia [1]; 120 mg/kg/inj iv, d.1
  Effect MST % T/C: 100 % T/C
  MST Days: 7.0 days
L1210 Leukemia [1]; iv, multi-dose regimen
  maximum T/C: 143%
L1210 Leukemia [1]; multi-dose therapy ip (qd 1→9)
  maximum T/C: 207-214%
L1210 Leukemia [1]; single ip doses, ip L1210
  maximum T/C: 143%
L1210 Leukemia [2]; 10 mg/kg ip, vehicle H2O
  Effect MST % T/C: 114 % T/C
  MST Days: 8.0 days
L1210 Leukemia [2]; 10 mg/kg ip, vehicle Saline
  Effect MST % T/C: 100 % T/C
  MST Days: 7.0 days
L1210 Leukemia [2]; 20 mg/kg ip, vehicle H2O
  Effect MST % T/C: 143 % T/C
  MST Days: 10.0 days
L1210 Leukemia [2]; 20 mg/kg ip, vehicle Saline
  Effect MST % T/C: 100 % T/C
  MST Days: 7.0 days
L1210 Leukemia [2]; 40 mg/kg ip, vehicle H2O
  Effect MST % T/C: 129 % T/C
  MST Days: 9.0 days
L1210 Leukemia [2]; 40 mg/kg ip, vehicle Saline
  Effect MST % T/C: 114 % T/C
  MST Days: 8.0 days
L1210 Leukemia [2]; 60 mg/kg ip, vehicle H2O
  Effect MST % T/C: 143 % T/C
  MST Days: 10.0 days
L1210 Leukemia [2]; 60 mg/kg ip, vehicle Saline
  Effect MST % T/C: 114 % T/C
  MST Days: 8.0 days
L1210 Leukemia [2]; 80 mg/kg ip, vehicle H2O
  Effect MST % T/C: 143 % T/C
  MST Days: 10.0 days
L1210 Leukemia [2]; 80 mg/kg ip, vehicle Saline
  Effect MST % T/C: 143 % T/C
  MST Days: 10.0 days
L1210 Leukemia [2]; 100 mg/kg ip, vehicle H2O
  Effect MST % T/C: 143 % T/C
  MST Days: 10.0 days
L1210 Leukemia [2]; 100 mg/kg ip, vehicle Saline
  Effect MST % T/C: 129 % T/C
  MST Days: 9.0 days
L1210 Leukemia [2]; single dose ip, saline and water as vehicles
  Maximum increase in median lifespan (T/C): 143%
B16 Melanoma [3]; 2 mg/kg/day ip
  Average Weight Change: -1.5 g
  Effect MST % T/C: 160 % T/C
  MST Days: 33.0 days
B16 Melanoma [3]; 4 mg/kg/day ip
  Average Weight Change: -2.8 g
  Effect MST % T/C: 168 % T/C
  MST Days: 34.5 days
B16 Melanoma [3]; 8 mg/kg/day ip
  Average Weight Change: -3.2 g
  Effect MST % T/C: 163 % T/C
B16 Melanoma [3]; 16 mg/kg/day ip
  Average Weight Change: -2.9 g
  Effect MST % T/C: 185 % T/C
  MST Days: 38.0 days
B16 Melanoma [3]; Day 10, 8 mg/kg/day ip
  Survivors Day 10 (60): 9/10
B16 Melanoma [3]; Day 60 (figure in parentheses), 16 mg/kg/day ip
  Survivors Day 10 (60): 1
B16 Melanoma [4]; 8 mg/kg/inj ip, qd 1→9
  Effect MST %TC: 102 %TC
  MST Days: 31.0 days
B16 Melanoma [4]; 12 mg/kg/inj ip, qd 1→9
  Effect MST %TC: 92 %TC
  MST Days: 28.0 days
B16 Melanoma [4]; 16 mg/kg/inj ip, qd 1→9
  Effect MST %TC: 125 %TC
  MST Days: 38.0 days
B16 Melanoma [4]; 20 mg/kg/inj iv, d.1, 5&9
  Effect MST %TC: 93 %TC
  MST Days: 28.5 days
B16 Melanoma [4]; 24 mg/kg/inj ip, qd 1→9
  Effect MST %TC: TOX
  MST Days: TOX
B16 Melanoma [4]; 40 mg/kg/inj iv, d.1, 5&9
  Effect MST %TC: 108 %TC
  MST Days: 33.0 days
B16 Melanoma [4]; 60 mg/kg/inj iv, d.1, 5&9
  Effect MST %TC: 108 %TC
  MST Days: 33.0 days
B16 Melanoma [4]; 80 mg/kg/inj iv, d.1, 5&9
  Effect MST %TC: TOX
  MST Days: TOX
B16 Melanoma [4]; 100 mg/kg/inj iv, d.1, 5&9
  Effect MST %TC: TOX
  MST Days: TOX
B16 Melanoma [4]; given ip, sc-implanted B16 melanoma
  T/C: 125%
B16 Melanoma [4]; given iv, sc-implanted B16 melanoma
  maximum T/C: not active
Lewis Lung Carcinoma; 4 mg/kg/inj ip, qd 5→13
  Effect MST %TC: 120 %TC
  MST Days: 15.0 days
Lewis Lung Carcinoma; 8 mg/kg/inj ip, qd 5→13
  Effect MST %TC: 140 %TC
  MST Days: 17.5 days
Lewis Lung Carcinoma; 12 mg/kg/inj ip, qd 5→13
  Effect MST %TC: 148 %TC
  MST Days: 18.5 days
Lewis Lung Carcinoma; 16 mg/kg/inj ip, qd 5→13
  Effect MST %TC: 160 %TC
  MST Days: 20.0 days
Lewis Lung Carcinoma; 20 mg/kg/inj ip, d. 5,9&13
  Effect MST %TC: 124 %TC
  MST Days: 15.5 days
Lewis Lung Carcinoma; 20 mg/kg/inj iv, d. 5,9&13
  Effect MST %TC: 100 %TC
  MST Days: 12.5 days
Lewis Lung Carcinoma; 40 mg/kg/inj ip, d. 5,9&13
  Effect MST %TC: 148 %TC
  MST Days: 18.5 days
Lewis Lung Carcinoma; 40 mg/kg/inj iv, d. 5,9&13
  Effect MST %TC: 108 %TC
  MST Days: 13.5 days
Lewis Lung Carcinoma; 60 mg/kg/inj ip, d. 5,9&13
  Effect MST %TC: 196 %TC
  MST Days: 24.5 days
Lewis Lung Carcinoma; 60 mg/kg/inj iv, d. 5,9&13
  Effect MST %TC: 132 %TC
  MST Days: 16.5 days
Lewis Lung Carcinoma; 80 mg/kg/inj ip, d. 5,9&13
  Effect MST %TC: 268 %TC
  MST Days: 33.5 days
Lewis Lung Carcinoma; 80 mg/kg/inj iv, d. 5,9&13
  Effect MST %TC: 148 %TC
  MST Days: 18.5 days
Lewis Lung Carcinoma; given ip, at maximum T/C
  long-term survivors (day 48): 2 to 6
Lewis Lung Carcinoma; given ip, therapy from day 5
  maximum T/C: 268%
Lewis Lung Carcinoma; given iv, therapy from day 5
  T/C: 148%
[5]
  Solubility in H2O at 22-25°C: > 100 mg/mL
